Results published in patent US7670785B2, “Polynucleotides and polypeptides associated with the development of rheumatoid arthritis” (Bristol-Myers Squibb Company, priority 2001, dated 2010).

What was measured:
GBP-5 [1] = experiment: GBP-5 mRNA in stimulated mouse fibroblasts, real time PCR; format: cell-based; details: 2 or 8 hours, TNFα 10 ng/ml or PMA 10 ng/ml, FIG. 90B
Experimental: (§1) Wild type 3T3 fibroblasts and immortalized fibroblast lines derived from p65 and IkBα germline knockouts were cultured in DMEM with 10% calf serum, glutamax and penicillin/streptomycin. Primary embryonic fibroblasts derived from germline knockouts of relB and p50 were cultured in DMEM with 10% fetal calf serum, glutamax and penicillin/streptomycin. The fibroblasts were plated at 5×10^5/well of a 6 well plate and cultured overnight at 37° C. in 5% CO2. Cells were stimulated for 2 or 8 hours with either medium, human TNFα (10 ng/ml) or PMA (10 ng/ml). At each time point, cells were harvested using trypsin/EDTA, washed one time with PBS, and stored at −80° C.
(§2) Total RNA was isolated from cells using the RNeasy® Kit from Qiagen (Valencia, Calif.), including the on-the-column DNase digestion procedure. RNA quality and quantity were evaluated using UV spectrometry. Total RNA was used for first-strand cDNA synthesis using the SuperScript™ First-Strand Synthesis System for RT-PCR (Invitrogen, Carlsbad, Calif.) following the manufacturer's instructions with 50 ng of random hexamers.
(§3) Reactions were performed in a total volume of 40 μl. […]
(§4) A relative value for the initial target concentration in each reaction was determined using the TaqMan 5700 software. […]

Fc gamma RI = details: RA patients, monocytes; cited from earlier work
TNF-α = molecular target: T1, TNF-α (Homo sapiens, UniProt P01375); details: cited from earlier work
T1 construct: host or cells: RA patients (in vivo)

IL-1 = details: RA patients; cited from earlier work
GBP-1 [2] = experiment: GBP-1 expression in stimulated human microvascular endothelial cells, microarray; format: cell-based; details: three donors, TNFα 10, IL-1β 10, VEGF 30, bFGF 10 ng/ml, FIG. 93A
Experimental: (§5) Human microvascular endothelial cells from three different donors were obtained from Clonetics (Walkersville, Md.), and cultured in EGM-2 medium (Clonetics). Cells were cultured in 100 mm dishes coated with mouse type IV collagen and allowed to grow to approximately 80% confluency. The cells were then stimulated for 1, 6, or 24 hours with either medium, TNFα (10 ng/ml), or IL-1β (10 ng/ml). At each time point, mRNA was isolated, labeled and used to probe Affymetrix HG_U95Av2 and HG_U95B chips.
(§6) For VEGF and bFGF stimulations, microvascular endothelial cells from three independent donors were obtained, cultured in 100 mm dishes coated with mouse type IV collagen and allowed to grow to 30% confluency. At this time, the media was replaced with DMEM containing 2% fetal calf serum, and the cells were cultured an additional day. The cells were stimulated for 1, 6, or 24 hours with either medium, VEGF (30 ng/ml) or bFGF (10 ng/ml). At each time point, mRNA was isolated, labeled, and used to probe Affymetrix chips as described above.

GBP-5 [3] = experiment: GBP-5 expression in stimulated human microvascular endothelial cells, microarray; format: cell-based; details: for donors whose cells upregulated GBP-5 mRNA: human microvascular endothelial cells from three donors; for induction of GBP-5: human microvascular endothelial cells, three donors, TNFα 10, IL-1β 10 ng/ml, FIG. 93B
Experimental: as §5, §6

GBP-1 [4] = experiment: GBP-1 mRNA in stimulated synovial fibroblasts from rheumatoid arthritis patients, microarray; format: cell-based, human; details: RA synovial fibroblasts; TNFα, IL-1α, IL-17 10 ng/ml, IL-17b-Ig 5 ng/ml; FIG. 94A
Experimental: Synovial fibroblasts were obtained from Cell Applications, Inc. (San Diego, Calif.), and cultured for 1, 6, or 24 hours with either medium, TNFα (10 ng/ml), IL-1α (10 ng/ml, Peprotech), IL-17 (10 ng/ml, R&D Systems, Minneapolis, Minn.), or IL-17b-Ig fusion protein (5 ng/ml). The IL-17b protein was produced by fusing the full length IL-17b sequence (Shi et al., J. Biol. Chem. 275:19167-19176 (2000)) to the human IgG1 Fc region. At each time point, mRNA was isolated, labeled, and used to probe Affymetrix HG_U95Av2, HG_U95B, HG_U95C, HG_U95D, and HG_U95E chips.

mouse GBP-1 = experiment: GBP-1 mRNA in stimulated mouse fibroblasts, real time PCR; format: cell-based; details: 2 or 8 hours, TNFα 10 ng/ml or PMA 10 ng/ml, FIG. 90A
Experimental: as §1, §2, §3, §4

GBP-1 [5] = experiment: GBP-1 mRNA in resting and stimulated THP-1 monocytes, microarray; format: cell-based, human; details: IFN-γ 100 U/ml, TNFα 10 ng/ml, LPS 100 ng/ml, FIG. 92A
Experimental: (§7) For the microarray analyses, THP-1 cells (10^7/group) were cultured at 10^6/ml as above for 1, 6, 24, or 48 hours with either medium, TNFα (10 ng/ml), IFN-γ(100 U/ml), or LPS (100 ng/ml). At each time point, mRNA was isolated, labeled, and used to probe Affymetrix HG_U95Av2, HG_U95B, and HG_U95C chips.

GBP-5 [6] = experiment: GBP-5 mRNA in resting and stimulated THP-1 monocytes, microarray; format: cell-based, human; details: IFN-γ 100 U/ml, TNFα 10 ng/ml, LPS 100 ng/ml, FIG. 92B
Experimental: as §7

GBP-1 [7] = experiment: LPS-induced GBP-1 mRNA in THP-1 monocytes, real time PCR; format: cell-based, human; details: THP-1, LPS 100 ng/ml, 2 hour stimulation
Experimental: (§8) For real time PCR analyses, THP-1 cells (10^7/group) were cultured at 10^6/ml in RPMI containing 10% heat inactivated fetal calf serum, 2 mM L-glutamine with either medium, BMS-205820 (2 uM), or dexamethasone (100 nM) for 30 minutes at 37° C. in 5% CO2. LPS was added to each group (100 ng/ml), and the incubation continued for 0.5-8 hr. At the end of each time point, cells were pelleted, washed one time with 10 ml PBS, and stored at −80° C.
as §2
(§9) Reactions were performed in a total volume of 40 μl. The master mix contained SYBR Green I Dye, 50 mM Tris-HCl pH8.3, 75 mM KCl, DMSO, Rox reference dye, 5 mM MgCl2, 2 mM dNTP, Platinum Taq High Fidelity (1 U/reaction), and 0.5 μM of each primer. Eight microliters of diluted cDNA was used in each PCR reaction. […]
as §4

GBP-5 [8] = experiment: LPS-induced GBP-5 mRNA in THP-1 monocytes, real time PCR; format: cell-based, human; details: THP-1, LPS 100 ng/ml, 2 hour stimulation
Experimental: as §8, §2, §9, §4

IL-15 = molecular target: T2, IL-15 (Mus musculus, UniProt P48346); details: administration to mice; cited from earlier work
T2 construct: host or cells: mice (collagen-induced arthritis model)
T2 sequence (P48346 49-162): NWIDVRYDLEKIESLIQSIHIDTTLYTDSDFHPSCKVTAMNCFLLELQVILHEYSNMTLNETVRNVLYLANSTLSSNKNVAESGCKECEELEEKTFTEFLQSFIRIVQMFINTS

T1 sequence (P01375 77-233 limits assumed): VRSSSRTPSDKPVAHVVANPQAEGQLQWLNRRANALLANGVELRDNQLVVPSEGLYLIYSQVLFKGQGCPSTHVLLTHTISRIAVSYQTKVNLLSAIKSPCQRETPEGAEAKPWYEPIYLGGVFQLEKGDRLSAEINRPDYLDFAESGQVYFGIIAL

## CCCCCCCCCCCCCC(=O)O[C@@H]1[C@@H](C)[C@@]2(O)[C@@H](C=C(CO)C[C@]3(O)C(=O)C(C)=C[C@@H]23)[C@@H]2C(C)(C)[C@]12OC(C)=O [PMA, reference compound]
GBP-5 [1]
  steady-state level of GBP-5 mRNA: not

## C[C@]12C=CC(=O)C=C1CC[C@@H]1[C@@H]2[C@@H](O)C[C@@]2(C)[C@H]1CC[C@]2(O)C(=O)CO [prednisolone]
Fc gamma RI
  Fc gamma RI expression: induced down-regulation

## Etanercept
TNF-α; RA patients
  number of swollen joints: significant decrease
  numbers of T cells and plasma cells in the synovium: significant decrease
TNF-α; treated patients
  expression of VCAM-1 and IL-1 in the synovium: decrease

## IL-1Ra: natural inhibitor of IL-1, recombinant human IL-1 receptor antagonist
IL-1
  clinical symptoms and rate of progressive joint damage: significantly reduced

## IL-1β: cytokine used as stimulus of endothelial cells
GBP-1 [2]
  GBP-1 expression: strongly induced
GBP-5 [3]
  donors whose cells upregulated GBP-5 mRNA: Only one donor
  induction of GBP-5: variable

## IL-17: cytokine used as stimulus of synovial fibroblasts (R&D Systems)
GBP-1 [4]
  GBP-1 mRNA induction: not

## TNFα
Mouse GBP-1
  steady-state level of GBP-1 mRNA: induced increased steady-state levels
GBP-5 [1]
  steady-state level of GBP-5 mRNA: induced increased steady-state levels
GBP-1 [5]
  steady state level of GBP-1 mRNA: Much lower levels of expression were induced
GBP-5 [6]
  steady state level of GBP-5 mRNA: Much lower levels of expression were induced
GBP-1 [2]
  GBP-1 expression: strongly induced
GBP-5 [3]
  donors whose cells upregulated GBP-5 mRNA: two out of three
  induction of GBP-5: variable
GBP-1 [4]
  GBP-1 mRNA induction: induced at 1 and 6 hours

## VEGF
GBP-1 [2]
  GBP-1 expression: No induction

## basic FGF: growth factor used as stimulus of endothelial cells
GBP-1 [2]
  GBP-1 expression: No induction

## interferon-γ: cytokine used as stimulus of THP-1 monocytes
GBP-1 [5]
  steady state level of GBP-1 mRNA: strongly induced
GBP-5 [6]
  steady state level of GBP-5 mRNA: strongly induced

## lipopolysaccharide [LPS, reference compound]
GBP-1 [7]
  steady-state mRNA level of GBP-1: significantly increased
GBP-5 [8]
  steady-state mRNA level of GBP-5: significantly increased
GBP-1 [5]
  steady state level of GBP-1 mRNA: Much lower levels of expression were induced
GBP-5 [6]
  steady state level of GBP-5 mRNA: Much lower levels of expression were induced

B1: IL-1a: cytokine used as stimulus of synovial fibroblasts (Peprotech) (protein, UniProt P01583 113-271, looked up)
Interleukin-1 alpha: SAPFSFLSNVKYNFMRIIKYEFILNDALNQSIIRANDQYLTAAALHNLDEAVKFDMGAYKSSKDDAKITVILRISKTQLYVTAQDEDQPVLLKEMPEIPKTITGSETNLLFFWETHGTKNYFTSVAHPNLFIATKQDYWVCLAGGPPSITDFQILENQA
GBP-1 [4]
  GBP-1 mRNA induction: induced at 1 and 6 hours

B2: IL-17b: full length IL-17b sequence fused to the human IgG1 Fc region (protein)
chain: QPRSPKSKRKGQGRPGPLAPGPHQVPLDLVSRMKPYARMEEYERNIEEMVAQLRNSSELAQRKCEVNLQLWMSNKRSLSPWGYSINHDPSRIPVDLPEARCLCLGCVNPFTMQEDRSMVSVPVFSQVPVRRRLCPPPPRTGPCRQRAVMETIAVGCTCIF
GBP-1 [4]
  GBP-1 mRNA induction: not

B3: soluble IL-15 receptor alpha chain: soluble IL-15 receptor alpha chain administered to mice (protein, UniProt Q60819 33-205, looked up)
extracellular domain: GTTCPPPVSIEHADIRVKNYSVNSRERYVCNSGFKRKAGTSTLIECVINKNTNVAHWTTPSLKCIRDPSLAHYSPVPTVVTPKVTSQPESPSPSAKEPEAFSPKSDTAMTTETAIMPGSRLTPSQTTSAGTTGTGSHKSSRAPSLAATMTLEPTASTSLRITEISPHSSKMTK
modifications: extracellular domain
notes: soluble IL-15 receptor alpha chain administered to mice
IL-15
  collagen-induced arthritis: prevented
